One data set concerns the target T1, hACSS1 (Homo sapiens, UniProt Q9NUB1).
T1 construct: purchased MyBioSource (www.mybiosource.com)
T1 sequence (Q9NUB1 38-689): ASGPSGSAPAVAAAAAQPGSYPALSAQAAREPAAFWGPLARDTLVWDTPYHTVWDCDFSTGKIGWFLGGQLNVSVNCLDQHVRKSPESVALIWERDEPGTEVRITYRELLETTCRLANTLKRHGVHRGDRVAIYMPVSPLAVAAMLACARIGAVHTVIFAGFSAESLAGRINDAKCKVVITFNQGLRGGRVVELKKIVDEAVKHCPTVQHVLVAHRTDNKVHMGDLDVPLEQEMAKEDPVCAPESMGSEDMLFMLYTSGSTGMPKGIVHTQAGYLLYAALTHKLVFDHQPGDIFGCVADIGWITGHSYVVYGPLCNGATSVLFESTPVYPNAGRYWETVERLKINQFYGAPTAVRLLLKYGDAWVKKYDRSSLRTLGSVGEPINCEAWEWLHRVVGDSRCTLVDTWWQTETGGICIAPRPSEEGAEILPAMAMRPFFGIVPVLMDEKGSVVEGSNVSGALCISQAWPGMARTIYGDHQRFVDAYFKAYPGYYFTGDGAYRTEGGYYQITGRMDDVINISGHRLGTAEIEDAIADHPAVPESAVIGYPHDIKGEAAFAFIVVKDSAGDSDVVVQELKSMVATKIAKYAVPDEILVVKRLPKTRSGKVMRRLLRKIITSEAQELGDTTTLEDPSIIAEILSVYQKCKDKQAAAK
Put plainly: SPR binding to immobilized hACSS1. To be noted: single concentration 25μM injection. How it is done:
All binding assays were performed on a ProteOn XPR36 SPR Protein Interaction Array System (Bio-Rad Laboratories, Hercules, CA, United States). The instrument temperature was set at 25°C for all kinetic analyses. ProteOn GLH sensor chips were preconditioned with two short pulses each (10 s) of 50 mM NaOH, 100 mM HCl, and 0.5% sodium […]. Then, the system was equilibrated with running buffer (1x PBS pH 7.4, 3% DMSO, and 0.005% polysorbate 20). The surface of a GLH sensor chip was activated with a 1:100 dilution of a 1:1 mixture of 1-ethyl-3-(3-dimethylaminopropyl) carbodiimide hydrochloride (0.2 M) and sulfo-N-hydroxysuccinimide (0.05 M). Immediately after chip activation, the human ACSS2 or hACSS1 proteins were prepared at a concentration of 10 μg/mL in 10 mM sodium acetate, pH 5.5, and injected across ligand flow channels for 5 min at a flow rate of 30 μL/min. Then, after unreacted protein had been washed out, excess active ester groups on the sensor surface were capped by a 5 min injection of 1M ethanolamine HCl (pH 8.0) at a flow rate of 5 μL/min. […] Data were analyzed using the ProteOn Manager Software version 3.0 (Bio-Rad). […]
(In SPR one partner is held on a chip, and binding of the other changes the refractive index at the surface.)

The target in a further data set is T2, ACSS2 (Homo sapiens, UniProt Q9NR19).
T2 construct: His-tag (N); His-tag (C); made in house; host or cells: E. coli BL21 (DE3) RIL
Put plainly: Fluorescence polarization-based ACSS2 biochemical assay (ATP to AMP conversion). To be noted: 100 nM ACSS2, triplicate, ± SD; read-out: IC50, inhibition of ATP to AMP conversion of ACSS2. How it is done: ACSS2 enzyme activity was measured using the TranScreener AMP^2/GMP^2 Assay Kit—FP Readout assay (BellBrook Labs). The assay was performed in white, opaque, 96-well plates. […] ACSS2 was used in assay buffer (30 mM HEPES, pH 7.4, 140 mM NaCl, 2 mM MgCl2, 5 mM sodium acetate, 2 mM DTT, 0.05% CHAPS). Substrate mix was added, followed by a 60-min incubation. Final substrate concentrations were 5 mM acetate, 50 μM ATP, and 5 μM CoA. After incubation, conjugated AMP antibody and AMP tracer were added according to the methods described by BellBrook Labs. After 30 min, the FP signal was measured using a Tecan Spark multimode microplate reader. In the analysis, data were normalized to represent the percentage inhibition of ATPase activity.

The subject of the next data set is MDR1-MDCK cells. Nature of the data set: Bi-directional permeability across MDR1-MDCK cell monolayer (BBB assay). Type of data set: in vitro ADME, canine. To be noted: MDR1-MDCK BBB assay. An excerpt: (§1) This assay provides the apparent permeability coefficient (Papp), efflux ratio, and % recovery to assess compound permeation.
A further data set concerns MDR1 (P-gp). Described as above. Particulars: dog, MDR1-MDCK I monolayer. In kind it is in vitro ADME, canine.
Text: as §1

In general, IC50 refers to the concentration that gives 50% inhibition. The Papp A→B is how fast a substance crosses the layer from the apical side. A higher Papp A→B goes with fast passage. In general, Papp B→A refers to the apparent permeability from the basolateral to the apical side of a cell layer.

T2 sequence (Q9NR19 whole entry): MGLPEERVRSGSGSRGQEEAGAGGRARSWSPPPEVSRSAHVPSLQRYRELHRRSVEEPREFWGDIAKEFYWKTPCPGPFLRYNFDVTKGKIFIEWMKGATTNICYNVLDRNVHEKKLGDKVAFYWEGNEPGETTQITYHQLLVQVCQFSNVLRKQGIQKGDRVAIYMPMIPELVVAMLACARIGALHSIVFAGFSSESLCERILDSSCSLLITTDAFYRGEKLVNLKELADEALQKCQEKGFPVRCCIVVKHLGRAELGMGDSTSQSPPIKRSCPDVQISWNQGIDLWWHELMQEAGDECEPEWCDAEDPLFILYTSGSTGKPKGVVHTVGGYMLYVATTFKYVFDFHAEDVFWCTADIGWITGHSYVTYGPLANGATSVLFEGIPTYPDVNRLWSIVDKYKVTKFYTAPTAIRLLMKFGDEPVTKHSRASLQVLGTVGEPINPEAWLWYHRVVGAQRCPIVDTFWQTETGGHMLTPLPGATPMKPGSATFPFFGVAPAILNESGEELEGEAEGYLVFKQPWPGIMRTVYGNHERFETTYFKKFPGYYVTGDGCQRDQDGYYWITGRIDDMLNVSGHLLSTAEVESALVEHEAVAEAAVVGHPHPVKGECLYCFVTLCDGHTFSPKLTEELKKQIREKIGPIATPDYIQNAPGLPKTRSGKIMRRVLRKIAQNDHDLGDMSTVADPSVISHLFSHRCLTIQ

For the compound `N[C@H](C(=O)N1CCCC(c2ccccc2)(c2ccccc2)C1)C1CC1` [AD-8007], at hACSS1, the “binding to hACSS1 (specificity)” value is “specifically bind ACSS2 and not the mitochondrial isoform hACSS1”. In addition, the IC50 on ACSS2 stood at 890 ± 290 nM. Besides, in the data set on MDR1-MDCK cells, the “efflux ratio (in words)” value is given as “low efflux ratio” and the “permeability (in words)” value is given as “moderate permeability”. This compound also had a Papp A→B in the data set on MDR1 (P-gp) (A to B) of 2.81 ×10⁻⁶ cm/s. For the same compound, the Papp B→A in the data set with MDR1 (P-gp) (B to A) is 25.2 ×10⁻⁶ cm/s.

These data come from paper PMC11137182, “Selective and brain-penetrant ACSS2 inhibitors target breast cancer brain metastatic cells” (Frontiers in Pharmacology, 2024).
